Experimental data: article PMC9505031, “Implementation of QbD Approach to the Development of Chromatographic Methods for the Determination of Complete Impurity Profile of Substance on the Preclinical and Clinical Step of Drug Discovery Studies” (International Journal of Molecular Sciences, 2022)
Like-named read-outs stand apart in the source and are kept apart here.

Key:
[1] = Chromatographic hydrophobicity index CHI logD determination (UltraCore SuperC18 column); type: physicochemical
From the text: Due to this observation and to better characterise elution conditions for method development, it was decided to determine the chromatographic hydrophobicity index CHI logD of CPL409116 and its impurities by the methodology described by Valko et al.. Chromatographic hydrophobicity index CHI logD has been originally used for high-throughput physicochemical property profiling for rational drug design, where determined values strongly correlate to lipophilicity (logP and/or logD) of molecules.
On a basis of determining lipophilicity described by CHI logD at pH 2.6, 7.4 and 10.5 on ACE Ultracore SuperC18 column more valuable data were obtained in a contest of chromatography interactions molecules with stationary phase extended with their acid-base properties (Table 1). Particularly, strong pH dependence on retention factors has been observed for JAK ImpC and also for JAK07, JAK08, and JAK09. Greater differences and a wider range of CHI logD values, calculated on a base of peaks retention times of compounds, in the lower pH range than in the pH 7.4–10.5 range have been observed. The use of mobile phases with a lower pH would allow obtaining higher chromatographic resolutions and higher selectivity of the analytical method.
For the CHI logD determination, separate solutions of all the tested sample were prepared at a concentration of 1 mM in DMSO. Reference mix solutions have a concentration of 1 mM in DMSO.
The CHI logD for JAK01 and its impurities was determined on an UltraCore 2.5 SuperC18 (2.1 × 50 mm, 2.5 µm, ACE) column with eluent A consisting of formic acid (10 mM, pH 2.6), and ammonium acetate (50 mM) buffers with different concentrations of additives were used to prepare buffer solutions of 7.4, and 10.5, and eluent B consisted ACN [58].

[2] = Solubility in aqueous solutions; type: physicochemical

chromatographic logD ([1]; pH 2.6, 10 mM formic acid/ACN, read-out: CHILogD pH 2.6): 3.51
chromatographic logD ([1]; pH 7.4, 50 mM ammonium acetate/ACN, read-out: CHILogD pH 7.4): 3.09
chromatographic logD ([1]; pH 10.5, 50 mM ammonium acetate/ACN, read-out: CHILogD pH 10.5): 3.05
Solubility in aqueous solutions ([2]; aqueous solutions): practically insoluble
solubility ([2]; pH 7.4, aqueous buffer, phosphate buffer with a pH of 7.4): < 0.1 µg/mL
SMILES: COc1cccc(-c2cc3ncc(C(N)=O)c(N[C@@H]4CCN(c5ccc(C#N)nn5)CC4(C)C)n3n2)n1 [CPL409116]
